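These data come from cells grown in 96-well plates and exposed to compound for 48 hours at five concentrations. TGI marks complete inhibition of growth.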
Key:
Experiment in all cases: inhibition of tumour cell growth, NCI panel, 48 h
T-47D breast = test system: T-47D breast
OVCAR-5 ovarian = test system: OVCAR-5 ovarian
SF-268 CNS = test system: SF-268 CNS
BT-549 breast = test system: BT-549 breast
SW-620 colon = test system: SW-620 colon
ACHN renal = test system: ACHN renal
CAKI-1 renal = test system: CAKI-1 renal
HS 578T breast = test system: HS 578T breast
UACC-257 melanoma = test system: UACC-257 melanoma
NCI-H226 lung = test system: NCI-H226 lung
MDA-MB-231 breast = test system: MDA-MB-231 breast
KM12 colon = test system: KM12 colon
MCF7 breast = test system: MCF7 breast
IGROV1 ovarian = test system: IGROV1 ovarian
U251 CNS = test system: U251 CNS
NCI/ADR-RES ovarian = test system: NCI/ADR-RES ovarian
UO-31 renal = test system: UO-31 renal
SK-MEL-28 melanoma = test system: SK-MEL-28 melanoma
SK-MEL-2 melanoma = test system: SK-MEL-2 melanoma
786-0 renal = test system: 786-0 renal
A549 NSCLC = test system: A549 NSCLC
SNB-75 CNS = test system: SNB-75 CNS
NCI-H23 lung = test system: NCI-H23 lung
COLO 205 colon = test system: COLO 205 colon
HOP-62 NSCLC = test system: HOP-62 NSCLC
MOLT-4 leukemia = test system: MOLT-4 leukemia
CCRF-CEM leukemia = test system: CCRF-CEM leukemia
UACC-62 melanoma = test system: UACC-62 melanoma
NCI-H460 lung = test system: NCI-H460 lung
OVCAR-3 ovarian = test system: OVCAR-3 ovarian
LOX IMVI melanoma = test system: LOX IMVI melanoma
HT29 colon = test system: HT29 colon
SNB-19 CNS = test system: SNB-19 CNS
SK-MEL-5 melanoma = test system: SK-MEL-5 melanoma
A498 renal = test system: A498 renal
EKVX NSCLC = test system: EKVX NSCLC
K-562 leukemia = test system: K-562 leukemia
HCT-15 colon = test system: HCT-15 colon
SR leukemia = test system: SR leukemia
OVCAR-8 ovarian = test system: OVCAR-8 ovarian
HOP-92 NSCLC = test system: HOP-92 NSCLC
MALME-3M melanoma = test system: MALME-3M melanoma
OVCAR-4 ovarian = test system: OVCAR-4 ovarian
RXF 393 renal = test system: RXF 393 renal
RPMI-8226 leukemia = test system: RPMI-8226 leukemia
SN12C renal = test system: SN12C renal
MDA-MB-435 = test system: MDA-MB-435
NCI-H522 lung = test system: NCI-H522 lung
HCC-2998 colon = test system: HCC-2998 colon
SK-OV-3 ovarian = test system: SK-OV-3 ovarian
TK-10 renal = test system: TK-10 renal
M14 melanoma = test system: M14 melanoma
PC-3 prostate = test system: PC-3 prostate
DU-145 prostate = test system: DU-145 prostate
HCT-116 colon = test system: HCT-116 colon
SF-295 CNS = test system: SF-295 CNS
MDA-N = test system: MDA-N
SF-539 CNS = test system: SF-539 CNS
HL-60(TB) leukemia = test system: HL-60(TB) leukemia

In the case of `Clc1ccc(CCNCCNC2(c3cc4ccccc4s3)CCCCC2)cc1Cl`, the TGI (T-47D breast) is reported as 4.07 µM, the TGI (OVCAR-5 ovarian) is reported as 3.64 µM and the TGI (SF-268 CNS) is reported as 3.37 µM. For the same molecule, the TGI (BT-549 breast) was 3.44 µM, the TGI (SW-620 colon) was 3.48 µM and the TGI (ACHN renal) was 3.1 µM. For the same molecule, the TGI (CAKI-1 renal) was 3.42 µM, the TGI (HS 578T breast) was 4.52 µM and the TGI (UACC-257 melanoma) was 3.29 µM. For the same molecule, the TGI (NCI-H226 lung) was 3.64 µM, the TGI (MDA-MB-231 breast) was 3.24 µM and the TGI (KM12 colon) was 3.1 µM. It also gave a TGI (MCF7 breast) of 3.18 µM, a TGI (IGROV1 ovarian) of 3.24 µM and a TGI (U251 CNS) of 2.99 µM. It also gave a TGI (NCI/ADR-RES ovarian) of 3.47 µM, a TGI (UO-31 renal) of 3.46 µM and a TGI (SK-MEL-28 melanoma) of 3.24 µM. For the same molecule, the TGI (SK-MEL-2 melanoma) was 3.2 µM, the TGI (786-0 renal) was 3.65 µM and the TGI (A549 NSCLC) was 3.81 µM. The TGI (SNB-75 CNS) was 3.72 µM, the TGI (NCI-H23 lung) was 3.38 µM and the TGI (COLO 205 colon) was 2.99 µM. For the same molecule, the TGI (HOP-62 NSCLC) was 2.6 µM, the TGI (MOLT-4 leukemia) was 4.53 µM and the TGI (CCRF-CEM leukemia) was 5.39 µM. It also gave a TGI (UACC-62 melanoma) of 3.11 µM, a TGI (NCI-H460 lung) of 3.16 µM and a TGI (OVCAR-3 ovarian) of 2.91 µM. It also gave a TGI (LOX IMVI melanoma) of 3.36 µM, a TGI (HT29 colon) of 3.59 µM and a TGI (SNB-19 CNS) of 3.83 µM. The TGI (SK-MEL-5 melanoma) was 3.12 µM, the TGI (A498 renal) was 3.17 µM and the TGI (EKVX NSCLC) was 3.99 µM. It also gave a TGI (K-562 leukemia) of 4.52 µM, a TGI (HCT-15 colon) of 3.61 µM and a TGI (SR leukemia) of 4.19 µM. For the same molecule, the TGI (OVCAR-8 ovarian) was 3.54 µM, the TGI (HOP-92 NSCLC) was 3.15 µM and the TGI (MALME-3M melanoma) was 3.44 µM. It also gave a TGI (OVCAR-4 ovarian) of 3.17 µM, a TGI (RXF 393 renal) of 4 µM and a TGI (RPMI-8226 leukemia) of 4.62 µM. It also gave a TGI (SN12C renal) of 3.53 µM, a TGI (MDA-MB-435) of 3.83 µM and a TGI (NCI-H522 lung) of 3.37 µM. It also gave a TGI (HCC-2998 colon) of 2.82 µM, a TGI (SK-OV-3 ovarian) of 2.81 µM and a TGI (TK-10 renal) of 3.07 µM. The TGI (M14 melanoma) was 3.97 µM, the TGI (PC-3 prostate) was 3.11 µM and the TGI (DU-145 prostate) was 3.88 µM. The TGI (HCT-116 colon) was 3.26 µM, the TGI (SF-295 CNS) was 3.04 µM and the TGI (MDA-N) was 3.33 µM.

Molecule `NC(=O)C1CCCN1Cc1ccc2c(c1)OCO2` (stereo not given) has a TGI (T-47D breast) greater than 100 µM, a TGI (OVCAR-5 ovarian) greater than 100 µM and a TGI (SF-268 CNS) greater than 100 µM. For the same molecule, the TGI (BT-549 breast) was greater than 100 µM, the TGI (SW-620 colon) was greater than 100 µM and the TGI (ACHN renal) was greater than 100 µM. For the same molecule, the TGI (CAKI-1 renal) was greater than 100 µM, the TGI (HS 578T breast) was greater than 100 µM and the TGI (UACC-257 melanoma) was greater than 100 µM. The TGI (NCI-H226 lung) was greater than 100 µM, the TGI (MDA-MB-231 breast) was greater than 100 µM and the TGI (KM12 colon) was greater than 100 µM. The TGI (MCF7 breast) was greater than 100 µM, the TGI (IGROV1 ovarian) was greater than 100 µM and the TGI (SF-539 CNS) was greater than 100 µM. For the same molecule, the TGI (U251 CNS) was greater than 100 µM, the TGI (NCI/ADR-RES ovarian) was greater than 100 µM and the TGI (UO-31 renal) was greater than 100 µM. It also gave a TGI (SK-MEL-28 melanoma) greater than 100 µM, a TGI (SK-MEL-2 melanoma) greater than 100 µM and a TGI (HL-60(TB) leukemia) greater than 100 µM. For the same molecule, the TGI (786-0 renal) was greater than 100 µM, the TGI (A549 NSCLC) was greater than 100 µM and the TGI (SNB-75 CNS) was greater than 100 µM. It also gave a TGI (NCI-H23 lung) greater than 100 µM, a TGI (COLO 205 colon) greater than 100 µM and a TGI (HOP-62 NSCLC) greater than 100 µM. It also gave a TGI (MOLT-4 leukemia) greater than 100 µM, a TGI (CCRF-CEM leukemia) greater than 100 µM and a TGI (UACC-62 melanoma) greater than 100 µM. It also gave a TGI (NCI-H460 lung) greater than 100 µM, a TGI (OVCAR-3 ovarian) greater than 100 µM and a TGI (LOX IMVI melanoma) greater than 100 µM. It also gave a TGI (HT29 colon) greater than 100 µM, a TGI (SNB-19 CNS) greater than 100 µM and a TGI (SK-MEL-5 melanoma) greater than 100 µM. The TGI (A498 renal) was greater than 100 µM, the TGI (EKVX NSCLC) was greater than 100 µM and the TGI (K-562 leukemia) was greater than 100 µM. The TGI (HCT-15 colon) was greater than 100 µM, the TGI (SR leukemia) was greater than 100 µM and the TGI (OVCAR-8 ovarian) was greater than 100 µM. For the same molecule, the TGI (HOP-92 NSCLC) was greater than 100 µM, the TGI (MALME-3M melanoma) was greater than 100 µM and the TGI (OVCAR-4 ovarian) was greater than 100 µM. For the same molecule, the TGI (RXF 393 renal) was greater than 100 µM, the TGI (RPMI-8226 leukemia) was greater than 100 µM and the TGI (SN12C renal) was greater than 100 µM. For the same molecule, the TGI (MDA-MB-435) was greater than 100 µM, the TGI (NCI-H522 lung) was greater than 100 µM and the TGI (SK-OV-3 ovarian) was greater than 100 µM. The TGI (TK-10 renal) was greater than 100 µM, the TGI (M14 melanoma) was greater than 100 µM and the TGI (PC-3 prostate) was greater than 100 µM. The TGI (DU-145 prostate) was greater than 100 µM, the TGI (HCT-116 colon) was greater than 100 µM and the TGI (SF-295 CNS) was greater than 100 µM. For the same molecule, the TGI (MDA-N) was greater than 100 µM.
